Reference: patent US20250382344A1, “Soluble GLP1/GIP/NPY2 Receptor Triple Agonists” (Boehringer Ingelheim International GmH, priority 2024, published 2025)
Where two headings read alike, the source gives them in different places.

Assays:
[1] = target: T1, hGIPR (Homo sapiens, UniProt P48546); assay: hGIPR CreLuc assay in 0.5% and 100% plasma (CHO CRE-luciferase reporter cells); format: cell-based
T1 construct: expressed in transfected cells; host or cells: CHO CRE-luciferase reporter cells
T1 sequence (P48546 22-466): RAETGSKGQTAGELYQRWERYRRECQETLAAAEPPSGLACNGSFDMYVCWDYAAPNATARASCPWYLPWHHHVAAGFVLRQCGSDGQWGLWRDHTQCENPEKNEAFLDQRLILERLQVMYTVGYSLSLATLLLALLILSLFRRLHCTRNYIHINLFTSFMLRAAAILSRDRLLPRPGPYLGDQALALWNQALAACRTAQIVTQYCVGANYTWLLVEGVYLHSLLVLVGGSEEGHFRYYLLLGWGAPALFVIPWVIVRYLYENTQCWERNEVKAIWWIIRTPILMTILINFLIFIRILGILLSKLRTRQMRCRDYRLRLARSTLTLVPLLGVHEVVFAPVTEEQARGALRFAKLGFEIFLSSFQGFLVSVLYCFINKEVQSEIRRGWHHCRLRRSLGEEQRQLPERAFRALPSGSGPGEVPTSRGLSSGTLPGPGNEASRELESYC

[2] = Solubility in 0.1 M phosphate buffer at pH 7; format: physicochemical; conditions: 0.1 M phosphate buffer at pH 7, 10 mg/mL final peptide concentration, shaking 2 hours at room temperature, peptides as TFA-salts; measured sample pH 6.5-7.0
[3] = 0.5% human plasma, read-out: hGIPR 0.5% hP
[4] = 100% human plasma, read-out: hGIPR 100% hP

Compound | EC50 [1, 3] [nM] | EC50 [1, 4] [nM] | solubility at 2 h [2] [µg/mL] | EC50 ([1]; hGIPR 0.5% hP (nM), 0.5% human plasma) [nM]
CC[C@H](C)[C@H](NC(=O)[C@H](CC(C)C)NC(=O)[C@H](Cc1c[nH]cn1)NC(=O)[C@H](CCCNC(=N)N)NC(=O)[C@@H](NC(=O)[C@H](Cc1ccccc1)NC(=O)[C@H](C)NC(=O)C(C)(C)NC(=O)[C@H](CCC(N)=O)NC(=O)[C@H](C)NC(=O)[C@H](CCC(N)=O)NC(=O)[C@H](CCCCN)NC(=O)[C@H](CCC(=O)O)NC(=O)[C@H](CC(C)C)NC(=O)C(C)(C)NC(=O)[C@@H](NC(=O)[C@H](CO)NC(=O)[C@H](Cc1ccc(O)cc1)NC(=O)[C@H](CC(=O)O)NC(=O)[C@H](CO)NC(=O)[C@@H](NC(=O)[C@H](Cc1ccccc1)NC(=O)[C@@H](NC(=O)CNC(=O)[C@H](CCC(=O)O)NC(=O)C(C)(C)NC(=O)[C@@H](N)Cc1ccc(O)cc1)[C@@H](C)O)[C@@H](C)O)[C@@H](C)CC)C(C)C)C(=O)N[C@@H](CC(N)=O)C(=O)N[C@@H](CCCCNC(=O)CC[C@H](NC(=O)CC[C@H](NC(=O)CC[C@H](NC(=O)CC[C@H](NC(=O)CC[C@H](NC(=O)CC[C@H](NC(=O)[C@H]1CC[C@H](CNC(=O)CCCCCCCCCCCCCCCCCCC(=O)O)CC1)C(=O)O)C(=O)O)C(=O)O)C(=O)O)C(=O)O)C(=O)O)C(=O)NC(C)(C)C(=O)N[C@H](C(=O)N[C@@H](CCCNC(=N)N)C(=O)N[C@@H](CCC(N)=O)C(=O)N[C@@H](CCCNC(=N)N)C(=O)N[C@@H](Cc1ccc(O)cc1)C(N)=O)[C@@H](C)O [Compound 133, Y-Aib-E-G-T-F-T-S-D-Y-S-I-Aib-L-E-K-Q-A-Q-Aib-A-F-V-R-H-L-I-N-K(1,3)-Aib-T-R-Q-R-Y-NH2.C20DA-TRX-gGlu-gGlu-gGlu-gGlu-gGlu-gGlu(1,2)] | 0.3 | 3.4 | 4200 | –
CC[C@H](C)[C@H](NC(=O)[C@H](CC(C)C)NC(=O)[C@H](Cc1c[nH]cn1)NC(=O)[C@H](CCCNC(=N)N)NC(=O)[C@@H](NC(=O)[C@H](Cc1ccccc1)NC(=O)[C@H](C)NC(=O)C(C)(C)NC(=O)[C@H](CCC(N)=O)NC(=O)[C@H](C)NC(=O)[C@H](CCC(N)=O)NC(=O)[C@H](CCCCN)NC(=O)[C@H](CCC(=O)O)NC(=O)[C@H](CC(C)C)NC(=O)C(C)(C)NC(=O)[C@@H](NC(=O)[C@H](CO)NC(=O)[C@H](CC(C)C)NC(=O)[C@H](CC(=O)O)NC(=O)[C@H](CO)NC(=O)[C@@H](NC(=O)[C@H](Cc1ccccc1)NC(=O)[C@@H](NC(=O)CNC(=O)[C@H](CCC(=O)O)NC(=O)C(C)(C)NC(=O)[C@@H](N)Cc1ccc(O)cc1)[C@@H](C)O)[C@@H](C)O)[C@@H](C)CC)C(C)C)C(=O)N[C@@H](CC(N)=O)C(=O)N[C@@H](CCCCNC(=O)[C@@H](N)CCCCNC(=O)CC[C@H](NC(=O)CC[C@H](NC(=O)CC[C@H](NC(=O)CC[C@H](NC(=O)CC[C@H](NC(=O)CC[C@H](NC(=O)CC[C@H](NC(=O)CCCCCCCCCCCCCCCCCCC(=O)O)C(=O)O)C(=O)O)C(=O)O)C(=O)O)C(=O)O)C(=O)O)C(=O)O)C(=O)NC(C)(C)C(=O)N[C@H](C(=O)N[C@@H](CCCNC(=N)N)C(=O)N[C@@H](CCC(N)=O)C(=O)N[C@@H](CCCNC(=N)N)C(=O)N[C@@H](Cc1ccc(O)cc1)C(N)=O)[C@@H](C)O [Compound 135, Y-Aib-E-G-T-F-T-S-D-L-S-I-Aib-L-E-K-Q-A-Q-Aib-A-F-V-R-H-L-I-N-K(1,3)-Aib-T-R-Q-R-Y-NH2.C20DA-gGlu-gGlu-gGlu-gGlu-gGlu-gGlu-gGlu-eLys(1,2)] | – | – | 9200 | 0.5
CC[C@H](C)[C@H](NC(=O)[C@H](CC(C)C)NC(=O)[C@H](Cc1c[nH]cn1)NC(=O)[C@H](CCCNC(=N)N)NC(=O)[C@@H](NC(=O)[C@H](Cc1ccccc1)NC(=O)[C@H](C)NC(=O)C(C)(C)NC(=O)[C@H](CCC(N)=O)NC(=O)[C@H](C)NC(=O)[C@H](CCC(N)=O)NC(=O)[C@H](CCCCN)NC(=O)[C@H](CCC(=O)O)NC(=O)[C@H](CC(C)C)NC(=O)C(C)(C)NC(=O)[C@@H](NC(=O)[C@H](CO)NC(=O)[C@H](Cc1ccc(O)cc1)NC(=O)[C@H](CC(=O)O)NC(=O)[C@H](CO)NC(=O)[C@@H](NC(=O)[C@H](Cc1ccccc1)NC(=O)[C@@H](NC(=O)CNC(=O)[C@H](CCC(=O)O)NC(=O)C(C)(C)NC(=O)[C@@H](N)Cc1ccc(O)cc1)[C@@H](C)O)[C@@H](C)O)[C@@H](C)CC)C(C)C)C(=O)N[C@@H](CC(N)=O)C(=O)N[C@@H](CCCCNC(=O)CC[C@H](NC(=O)CC[C@H](NC(=O)COCCOCCNC(=O)CC[C@H](NC(=O)CC[C@H](NC(=O)CC[C@H](NC(=O)CC[C@H](NC(=O)CCCCCCCCCCCCCCCCCCC(=O)O)C(=O)O)C(=O)O)C(=O)O)C(=O)O)C(=O)O)C(=O)O)C(=O)NC(C)(C)C(=O)N[C@H](C(=O)N[C@@H](CCCNC(=N)N)C(=O)N[C@@H](CCC(N)=O)C(=O)N[C@@H](CCCNC(=N)N)C(=O)N[C@@H](Cc1ccc(O)cc1)C(N)=O)[C@@H](C)O [Compound 136, Y-Aib-E-G-T-F-T-S-D-Y-S-I-Aib-L-E-K-Q-A-Q-Aib-A-F-V-R-H-L-I-N-K(1,3)-Aib-T-R-Q-R-Y-NH2.C20DA-gGlu-gGlu-gGlu-gGlu-OEG-gGlu-gGlu(1,2)] | 0.5 | – | 9600 | –
CC[C@H](C)[C@H](NC(=O)[C@H](CC(C)C)NC(=O)[C@H](Cc1c[nH]cn1)NC(=O)[C@H](CCCNC(=N)N)NC(=O)[C@@H](NC(=O)[C@H](Cc1ccccc1)NC(=O)[C@H](C)NC(=O)C(C)(C)NC(=O)[C@H](CCC(N)=O)NC(=O)[C@H](C)NC(=O)[C@H](CCC(N)=O)NC(=O)[C@H](CCCCN)NC(=O)[C@H](CCC(=O)O)NC(=O)[C@H](CC(C)C)NC(=O)C(C)(C)NC(=O)[C@@H](NC(=O)[C@H](CO)NC(=O)[C@H](Cc1ccc(O)cc1)NC(=O)[C@H](CC(=O)O)NC(=O)[C@H](CO)NC(=O)[C@@H](NC(=O)[C@H](Cc1ccccc1)NC(=O)[C@@H](NC(=O)CNC(=O)[C@H](CCC(=O)O)NC(=O)C(C)(C)NC(=O)[C@@H](N)Cc1ccc(O)cc1)[C@@H](C)O)[C@@H](C)O)[C@@H](C)CC)C(C)C)C(=O)N[C@@H](CC(N)=O)C(=O)N[C@@H](CCCCNC(=O)[C@@H](N)CCCCNC(=O)CC[C@H](NC(=O)CC[C@H](NC(=O)CC[C@H](NC(=O)CC[C@H](NC(=O)CC[C@H](NC(=O)CC[C@H](NC(=O)[C@H]1CC[C@H](CNC(=O)CCCCCCCCCCCCCCCCC(=O)O)CC1)C(=O)O)C(=O)O)C(=O)O)C(=O)O)C(=O)O)C(=O)O)C(=O)NC(C)(C)C(=O)N[C@H](C(=O)N[C@@H](CCCNC(=N)N)C(=O)N[C@@H](CCC(N)=O)C(=O)N[C@@H](CCCNC(=N)N)C(=O)N[C@@H](Cc1ccc(O)cc1)C(N)=O)[C@@H](C)O [Compound 137, Y-Aib-E-G-T-F-T-S-D-Y-S-I-Aib-L-E-K-Q-A-Q-Aib-A-F-V-R-H-L-I-N-K(1,3)-Aib-T-R-Q-R-Y-NH2.C18DA-TRX-gGlu-gGlu-gGlu-gGlu-gGlu-gGlu-eLys(1,2)] | 0.5 | 11.5 | 4300 | –
CC[C@H](C)[C@H](NC(=O)[C@H](CC(C)C)NC(=O)[C@H](Cc1c[nH]cn1)NC(=O)[C@H](CCCNC(=N)N)NC(=O)[C@@H](NC(=O)[C@H](Cc1ccccc1)NC(=O)[C@H](C)NC(=O)C(C)(C)NC(=O)[C@H](CCC(N)=O)NC(=O)[C@H](C)NC(=O)[C@H](CCC(N)=O)NC(=O)[C@H](CCC(=O)O)NC(=O)[C@H](CC(=O)O)NC(=O)[C@H](CC(C)C)NC(=O)C(C)(C)NC(=O)[C@@H](NC(=O)[C@H](CO)NC(=O)[C@H](Cc1ccc(O)cc1)NC(=O)[C@H](CC(=O)O)NC(=O)[C@H](CO)NC(=O)[C@@H](NC(=O)[C@H](Cc1ccccc1)NC(=O)[C@@H](NC(=O)CNC(=O)[C@H](CCC(=O)O)NC(=O)C(C)(C)NC(=O)[C@@H](N)Cc1ccc(O)cc1)[C@@H](C)O)[C@@H](C)O)[C@@H](C)CC)C(C)C)C(=O)N[C@@H](CC(N)=O)C(=O)N[C@@H](CCCCNC(=O)[C@@H](N)CCCCNC(=O)CC[C@H](NC(=O)CC[C@H](NC(=O)CC[C@H](NC(=O)CC[C@H](NC(=O)CC[C@H](NC(=O)CCCCCCCCCCCCCCCCCCC(=O)O)C(=O)O)C(=O)O)C(=O)O)C(=O)O)C(=O)O)C(=O)NC(C)(C)C(=O)N[C@H](C(=O)N[C@@H](CCCNC(=N)N)C(=O)N[C@@H](CCC(N)=O)C(=O)N[C@@H](CCCNC(=N)N)C(=O)N[C@@H](Cc1ccc(O)cc1)C(N)=O)[C@@H](C)O [Compound 138, Y-Aib-E-G-T-F-T-S-D-Y-S-I-Aib-L-D-E-Q-A-Q-Aib-A-F-V-R-H-L-I-N-K(1,3)-Aib-T-R-Q-R-Y-NH2.C20DA-gGlu-gGlu-gGlu-gGlu-gGlu-eLys(1,2)] | 0.5 | 11.5 | 9300 | –
